Measured values published in patent publication US10738093B2, “Discovery of cationic nonribosomal peptides as Gram-negative antibiotics through global genome mining” (The Hong Kong University of Science and Technology, priority 2018, dated 2020).
In brackets after ≈: the same amount, converted by molar mass. Positions of bridges follow the written chain, without caps; N, C: chain ends. Non-standard residues stand in square brackets, D forms with d. Residues, ends and D or L forms follow the SMILES beside them. ξ: configuration not given here. *: point of attachment. Hexanoyl(4ξ-Me) = CCC(C)CCC(=O)*; dOrn = NCCC[C@@H](N)C(=O)O; Orn = NCCC[C@H](N)C(=O)O

Key:
[1] = system: Escherichia coli ATCC 25922; test: microbe, parasite or virus in culture; format: cell-based; conditions: ATCC 25922
Experimental: (§1) Minimum inhibitory concentration (MIC) was determined by broth microdilution according to CLSI guidelines. The test medium for most species was Mueller-Hinton broth (MHB). Bacteria were grown overnight to early stationary phase and adjusted in MHB to 5.0×10^5 colony-forming units per mL (c.f.u./mL) in the wells of 96-well microtiter plates, mixed with varying concentrations of test compounds and incubated at 37° C. for 24 h. […] MHBs containing 10% fetal bovine serum (Gibco), 21 mM MgCl, or 1.0 mg/ml LPS (lipopolysaccharides from Escherichia coli O55:B5, Sigma-Aldrich) were used to test their inhibitory effects.

[2] = system: K. pneumoniae NRRL-B-3521; format: cell-based, Klebsiella pneumoniae; conditions: NRRL-B-3521
Experimental: as §1

E. coli ATCC 25922 = test: Neutropenic mouse thigh infection model; format: in vivo, Escherichia coli
Experimental: In vivo activities of brevicidine and laterocidine were tested using the mouse thigh infection model. Animal studies were performed by Pharmacology Discovery Services Taiwan Ltd. (Taipei, Taiwan) in general accordance with standard guidelines on animal welfare in an AAALAC-accredited facility. The protocol was reviewed and approved by the Institutional Animal Care and Use Committee. Groups of five female specific-pathogen-free ICR (CD-1) mice weighing 22±2 g (˜5 weeks of age) were used. Animals were immunosuppressed with two intraperitoneal injections of cyclophosphamide, the first at 150 mg/kg 4 d before infection (day −4) and the second at 100 mg/kg 1 d before infection (day −1). On day 0, animals were inoculated intramuscularly (0.1 ml/thigh) in the right thigh with an E. coli ATCC 25922 suspension. Vehicle (10% DMSO, 1% Tween 80, 0.9% NaCl) and antibiotics were then subcutaneously injected 2 h and 8 h later. Due to limited amount of compounds 1-2, only one concentration of 1(30 mg/kg) or 2 (15 mg/kg) was used in this study. At 26 h after inoculation, animals were euthanized by CO2 asphyxiation before the muscle of the right thigh was harvested from each test animal. The removed muscle was homogenized in 5 mL of PBS, pH 7.4, with a polytron homogenizer. Homogenates in the amount of 0.1 mL were used for serial tenfold dilutions and plated onto a nutrient agar medium for colony count (c.f.u./g) determination.

For `CCC(C)CCC(=O)N[C@H](CC(N)=O)C(=O)N[C@H](Cc1ccc(O)cc1)C(=O)N[C@H](Cc1c[nH]c2ccccc12)C(=O)N[C@H](CCCN)C(=O)N[C@@H](CCCN)C(=O)NCC(=O)N[C@H](CCCN)C(=O)N[C@@H](Cc1c[nH]c2ccccc12)C(=O)N[C@@H]1C(=O)N[C@@H]([C@@H](C)CC)C(=O)NCC(=O)N[C@H](CO)C(=O)O[C@@H]1C` (stereo partly drawn) [Compound 1, 4-Methyl-Hexanoyl-D-Asn-D-Tyr-D-Trp-D-Orn-Orn-Gly-D-Orn-Trp-Thr-Ile-Gly-Ser (cyclized via lactone formation between Thr and the C-terminus)] ({Hexanoyl(4ξ-Me)}-[dN][dY][dW][dOrn][Orn]G[dOrn]WTIG[dS]; ester 9-C), the MIC [1] was 2 µg/mL (≈ 1.32 µM), the “MIC Ec” value [1] was 2 µg/mL (≈ 1.32 µM) and the MIC [2] was 4 µg/mL (≈ 2.63 µM). For the same compound, the “bactericidal efficacy in mouse thigh infection (viable bacteria)” value (E. coli ATCC 25922; brevicidine 30 mg/kg or laterocidine 15 mg/kg, 2 times, after 26 h) was “reduced numbers of viable bacteria” and the “reduction of c.fu. in thigh compared to the vehicle control” value (E. coli ATCC 25922; mice, 30 mg/kg subcutaneously, two doses, at 24 h) was 5 log10.
